In US20180282819A1, “Targeting the Histone Pathway to Detect and Overcome Anthracyclin Resistance” (ONTARIO INSTITUTE FOR CANCER RESEARCH (OICR), priority 2015, published 2018):

Legend:
Format in all cases: cell-based, human
[1] = system: MCF7 30 nM-R; assay: Apoptosis, Annexin V flow cytometry; conditions: 72 h
Procedure: (§1) For cell cycle, cells were synchronized by the double-thymidine block (Whitfield et al. 2000) and incubated with DMSO or epirubicin doses established for each cell line: 25 nM for MDA-MB-231, 30 nM for MCF7, 15 nM for SKBR3, 10 nM for ZR-75-1. Cells were collected at 48 h, fixed with 80% ethanol and incubated with 2 mg/ml RNase A and 0.1 mg/ml propidium iodide (both from Sigma, Oakville, Canada) prior to analysis. For apoptosis experiments, cells were treated with DMSO or epirubicin at concentrations described above, and collected at 72 h for staining with Annexin V apoptosis-detection eFluor450 (eBioscience, San Diego, USA). Data were collected by FACSCanto II and FACSDiva (BD Biosciences, Mississauga, Canada) and analyzed by FlowJo (Treestar, Ashland, USA).
(§2) To assess the effects of epirubicin on apoptosis, apoptotic cells were scored by flow cytometry after 72 h of exposure to epirubicin. The apoptotic index was consistently lower for resistant cells compared to native controls (Table 1). In particular, MDA-MB-231 and SKBR3 resistant cells required a substantially higher concentration of epirubicin (1000 nM) to induce apoptosis; even at this concentration of epirubicin, the apoptotic index was still nearly 50% lower compared to the native cells (Table 1).

[2] = system: MCF7 Native; assay: Apoptosis, Annexin V flow cytometry; conditions: 72 h
Procedure: as §1, §2

[3] = system: MDA-MB-231 25 nM-R; assay: Apoptosis, Annexin V flow cytometry; conditions: 72 h
Procedure: as §1, §2

[4] = system: MDA-MB-231 Native; assay: Apoptosis, Annexin V flow cytometry; conditions: 72 h
Procedure: as §1, §2

[5] = system: SKBR3 15 nM-R; assay: Apoptosis, Annexin V flow cytometry; conditions: 72 h
Procedure: as §1, §2

[6] = system: SKBR3 Native; assay: Apoptosis, Annexin V flow cytometry; conditions: 72 h
Procedure: as §1, §2

[7] = system: ZR-75-1 10 nM-R; assay: Apoptosis, Annexin V flow cytometry; conditions: 72 h
Procedure: as §1, §2

[8] = system: ZR-75-1 Native; assay: Apoptosis, Annexin V flow cytometry; conditions: 72 h
Procedure: as §1, §2

[9] = system: MCF7 30 nM-Resistant; assay: Proliferation, cell-doubling time; conditions: +30 nM epirubicin
Procedure: (§3) Cells were cultured in the presence or absence of epirubicin for up to 96 h (see Flow Cytometry for epirubicin concentrations). Cells were collected at 24, 48, 72 and 96 hours and counted by ViCell (Beckman Coulter, Mississauga, Canada). Data were analyzed in GraphPad Prism5 software.
(§4) To determine cell-doubling time, the investigators cultured cells with or without epirubicin for up to 96 h. In the absence of epirubicin, the native MDA-MB-231 and MCF7 cell populations doubled every 25 h and 29 h, respectively (Table 2), whereas native SKBR3 and ZR-75-1 cells grew more slowly, doubling every 45 h and 50 h, respectively. In the presence of epirubicin, doubling time increased 2.8-fold for the MDA-MB-231 (p=0.0371), 2.5-fold for MCF7 (ns), 1.3-fold for SKBR3 (p=0.0494) and 1.9-fold for ZR-75-1 (p=0.0258) for native cells. In contrast to the native cell lines, there were no marked changes in the doubling time of the resistant cells, regardless of whether epirubicin was added (Table 2).

[10] = system: MCF7 Native; assay: Proliferation, cell-doubling time
Procedure: as §3, §4

[11] = system: MDA-MB-231 25 nM-Resistant; assay: Proliferation, cell-doubling time; conditions: +25 nM epirubicin
Procedure: as §3, §4

[12] = system: MDA-MB-231 Native; assay: Proliferation, cell-doubling time
Procedure: as §3, §4

[13] = system: SKBR3 15 nM-Resistant; assay: Proliferation, cell-doubling time; conditions: +15 nM epirubicin
Procedure: as §3, §4

[14] = system: SKBR3 Native; assay: Proliferation, cell-doubling time
Procedure: as §3, §4

[15] = system: ZR-75-1 10 nM-Resistant; assay: Proliferation, cell-doubling time; conditions: +10 nM epirubicin
Procedure: as §3, §4

[16] = system: ZR-75-1 Native; assay: Proliferation, cell-doubling time
Procedure: as §3, §4

[17] = system: MCF7 epirubicin-resistant cells; assay: Cell cycle, PI flow cytometry after double-thymidine block; conditions: 100 nM epirubicin, 48 h
Procedure: (§5) (A-D) Cells were synchronized by a double-thymidine block and treated with DMSO or epirubicin at selection doses established for each resistant cell line: 25 nM epirubicin to MDA-MB-231, 30 nM epirubicin to MCF7, 15 nM epirubicin to SKBR3 and […]. Epirubicin concentration was increased to 100 nM for MCF7 and SKBR3 cells since G2/M block was not observed at the lower doses of epirubicin. Cells were collected at 48 h, stained by PI and analyzed by flow cytometry. Debris was gated out.
as §1
(§6) Cells were synchronized prior to exposure to DMSO or epirubicin. […] Therefore, overcoming a G2/M block may be part of the process leading to epirubicin resistance.

[18] = system: MCF7 native cells; assay: as above; conditions: 100 nM epirubicin, 48 h
Procedure: as §5, §1, §6

[19] = system: MDA-MB-231 native cells; assay: as above; conditions: 25 nM epirubicin, 48 h
Procedure: as §5, §1, §6

[20] = system: MDA-MB-231 resistant cells; assay: as above; conditions: 25 nM epirubicin, 48 h
Procedure: as §5, §1, §6

[21] = system: SKBR3 epirubicin-resistant cells; assay: as above; conditions: 100 nM epirubicin, 48 h
Procedure: as §5, §1, §6

[22] = system: SKBR3 native cells; assay: as above; conditions: 100 nM epirubicin, 48 h
Procedure: as §5, §1, §6

[23] = system: ZR-75-1 native cells; assay: as above; conditions: 10 nM epirubicin, 48 h
Procedure: as §5, §1, §6

[24] = system: ZR-75-1 resistant cells; assay: as above; conditions: 10 nM epirubicin, 48 h
Procedure: as §5, §1, §6

Compound: COc1cccc2c1C(=O)c1c(O)c3c(c(O)c1C2=O)C[C@@](O)(C(=O)CO)C[C@@H]3O[C@H]1C[C@H](N)[C@@H](O)[C@H](C)O1 [epirubicin]
- Percentages of apoptotic cells ([1]; 1 nM epirubicin): 24%
- Percentages of apoptotic cells ([1]; 30 nM epirubicin): 23%
- Percentages of apoptotic cells ([1]; 1000 nM epirubicin): 78%
- Percentages of apoptotic cells ([2]; 1 nM epirubicin): 29%
- Percentages of apoptotic cells ([2]; 30 nM epirubicin): 49%
- Percentages of apoptotic cells ([2]; 1000 nM epirubicin): 77%
- Percentages of apoptotic cells ([3]; 1 nM epirubicin): 10%
- Percentages of apoptotic cells ([3]; 25 nM epirubicin): 8%
- Percentages of apoptotic cells ([3]; 1000 nM epirubicin): 50%
- Percentages of apoptotic cells ([4]; 1 nM epirubicin): 17%
- Percentages of apoptotic cells ([4]; 25 nM epirubicin): 41%
- Percentages of apoptotic cells ([4]; 1000 nM epirubicin): 94%
- Percentages of apoptotic cells ([5]; 1 nM epirubicin): 17%
- Percentages of apoptotic cells ([5]; 15 nM epirubicin): 17%
- Percentages of apoptotic cells ([5]; 1000 nM epirubicin): 34%
- Percentages of apoptotic cells ([6]; 1 nM epirubicin): 26%
- Percentages of apoptotic cells ([6]; 15 nM epirubicin): 24%
- Percentages of apoptotic cells ([6]; 1000 nM epirubicin): 59%
- Percentages of apoptotic cells ([7]; 1 nM epirubicin): 28%
- Percentages of apoptotic cells ([7]; 10 nM epirubicin): 29%
- Percentages of apoptotic cells ([7]; 1000 nM epirubicin): 62%
- Percentages of apoptotic cells ([8]; 1 nM epirubicin): 44%
- Percentages of apoptotic cells ([8]; 10 nM epirubicin): 47%
- Percentages of apoptotic cells ([8]; 1000 nM epirubicin): 71%
- Doubling times [9]: 37 h
- Doubling times ([10]; MCF7 Native, +30 nM epirubicin): 74 h
- increase of doubling time in the presence of epirubicin ([10]; MCF7 native cells, ns): 2.5 fold
- Doubling times [11]: 43 h
- Doubling times ([12]; MDA-MB-231 Native, +25 nM epirubicin): 70 h
- increase of doubling time in the presence of epirubicin ([12]; MDA-MB-231 native cells, p=0.0371): 2.8 fold
- Doubling times [13]: 66 h
- Doubling times ([14]; SKBR3 Native, +15 nM epirubicin): 57 h
- increase of doubling time in the presence of epirubicin ([14]; SKBR3 native cells, p=0.0494): 1.3 fold
- Doubling times [15]: 67 h
- Doubling times ([16]; ZR-75-1 Native, +10 nM epirubicin): 95 h
- increase of doubling time in the presence of epirubicin ([16]; ZR-75-1 native cells, p=0.0258): 1.9 fold
- effect on cell cycle [17]: minimal effect
- effect on cell cycle [18]: arrested in G2/M phase
- effect on cell cycle [19]: arrested in G2/M phase
- effect on cell cycle [20]: progressed through
- effect on cell cycle [21]: minimal effect
- effect on cell cycle [22]: arrested in G2/M phase
- effect on cell cycle [23]: arrested in G2/M phase
- effect on cell cycle [24]: progressed through
